Consider 14 molecules from patent US7160888B2, “[1,8]naphthyridin-2-ones and related compounds for the treatment of schizophrenia” (Warner Lambert Company LLC, priority 2003, dated 2007).

For orientation: Emax means the maximal effect, on the per cent scale that the assay sets.

Chain of D2 receptor (P14416 whole entry): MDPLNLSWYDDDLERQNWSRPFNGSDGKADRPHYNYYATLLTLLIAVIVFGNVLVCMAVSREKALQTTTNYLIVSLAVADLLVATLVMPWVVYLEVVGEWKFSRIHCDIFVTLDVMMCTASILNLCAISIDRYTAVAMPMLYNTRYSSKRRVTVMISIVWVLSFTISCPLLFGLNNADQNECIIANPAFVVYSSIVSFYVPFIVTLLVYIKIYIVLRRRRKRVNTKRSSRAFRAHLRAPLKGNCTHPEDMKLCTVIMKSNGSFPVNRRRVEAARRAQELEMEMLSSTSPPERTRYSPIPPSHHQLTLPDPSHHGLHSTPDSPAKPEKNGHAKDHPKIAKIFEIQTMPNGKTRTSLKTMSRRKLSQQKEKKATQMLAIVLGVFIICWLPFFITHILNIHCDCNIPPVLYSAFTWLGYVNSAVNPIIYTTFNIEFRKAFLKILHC

The first assay has as its target D2 receptor (Homo sapiens, UniProt P14416). Description: [3H]Thymidine uptake assay for D2 intrinsic activity. The class given is cell-based. The note with it: Table 1; test compound 1 μM; 1 μM Quinpirole = 100% intrinsic activity.
Procedure: D2 intrinsic activity of title compounds of the Examples, below, was determined using the [^3H]thymidine uptake assay described below.
[^3H]Thymidine Uptake Assay for D2 Intrinsic Activity
Cells are serum deprived by washing twice with 200 μl of serum-free media. 90 μl serum-free media was added to each well. The plates ware incubated for two to three hours. 10 μl of serum-containing media, as a positive control, vehicle (serum-free media), negative control (an antagonist) or test compounds and standards (10 μl of a 10 μM solution for a final concentration of 1 μM) in serum-free media were added to wells. The plates are returned to the incubator. Eighteen hours later [^3H]thymidine is added (0.5 μCi/well in 10 μl of serum-free media) and the plates are returned to the incubator. […] The plates are returned to the incubator, once again. One hour later the assay is terminated by rapid filtration through Whatman GF/C glass fiber filters. Filters are washed four times with 500 ml of 50 mM Tris-HCl pH 7.0 buffer, for example, using a Brandel MLR-96T cell harvester. […] Intrinsic activity is defined as total uptake (1 μM Quinpirole) minus serum-free media (no uptake). Test compounds are compared to 1 μM Quinpirole (full DA agonist), which was classified as 100% intrinsic activity.
`O=c1ccc2ccc(OCCCCN3CCN(c4ccc(F)cc4Cl)CC3)nc2[nH]1` [Example B23, 7-{4-[4-(2-Chloro-4-fluoro-phenyl)-piperazin-1-yl]-butoxy}-1H-[1,8]naphthyridin-2-one] came in with a maximal effect (Emax) at 1 µM of 15%.

`N#Cc1ccc2cccc(N3CCN(CCCCOc4ccc5c(n4)NC(=O)CC5)CC3)c2c1` [Example A83, 8-{4-[4-(7-Oxo-5,6,7,8-tetrahydro-[1,8]naphthyridin-2-yloxy)-butyl]-piperazin-1-yl}-naphthalene-2-carbonitrile] yielded an Emax at 1 µM of 36%.

`CCc1cccc(N2CCN(CCCCOc3ccc4c(n3)NC(=O)CC4)CC2)n1` [Example A45, 7-{4-[4-(6-Ethyl-pyridin-2-yl)-piperazin-1-yl]-butoxy}-3,4-dihydro-1H-[1,8]naphthyridin-2-one]: the Emax at 1 µM is 34%.

`CC1(C)CCc2cccc(N3CCN(CCCCOc4ccc5ccc(=O)[nH]c5n4)CC3)c2C1=O` [Example B36, 7-{4-[4-(7,7-Dimethyl-8-oxo-5,6,7,8-tetrahydro-naphthalen-1-yl)-piperazin-1-yl]-butoxy}-1H-[1,8]naphthyridin-2-one] gave an Emax at 1 µM of 39%.

The same assay, now with this note: Table 2; test compound 1 μM; 1 μM Quinpirole = 100% intrinsic activity.
In turn, `CC(=O)N1CCCc2c(N3CCN(CCCCOc4ccc5ccc(=O)[nH]c5n4)CC3)cccc21` [Example B27′, 7-{4-[4-(1-Acetyl-1,2,3,4-tetrahydro-quinolin-5-yl)-piperazin-1-yl]-butoxy}-1H-[1,8]naphthyridin-2-one] registered an Emax at 1 µM of 34%.

`O=C1CCc2ccc(OCCCCN3CCN(c4cccc5nccnc45)CC3)nc2N1` [Example A44′, 7-[4-(4-Quinoxalin-5-yl-piperazin-1-yl)-butoxy]-3,4-dihydro-1H-[1,8]naphthyridin-2-one]: the Emax at 1 µM is 29%.

For the molecule `CC1(C)C=Cc2cccc(N3CCN(CCCCOc4ccc5c(n4)NC(=O)CC5)CC3)c2O1` [Example A5′, 7-{4-[4-(2,2-Dimethyl-2H-chromen-8-yl)-piperazin-1-yl]-butoxy}-3,4-dihydro-1H-[1,8]naphthyridin-2-one], the Emax at 1 µM was 31%.

The molecule `O=C1CCc2ccc(OCCCCN3CCN(c4cccc5ccncc45)CC3)nc2N1` [Example A36′, 7-[4-(4-Isoquinolin-8-yl-piperazin-1-yl)-butoxy]-3,4-dihydro-1H-[1,8]naphthyridin-2-one] had an Emax at 1 µM of 62%.

In turn, `O=C1CCc2ccc(OCCCCN3CCN(c4cccc5sccc45)CC3)nc2N1` [Example A28′, 7-[4-(4-Benzo[b]thiophen-4-yl-piperazin-1-yl)-butoxy]-3,4-dihydro-1H-[1,8]naphthyridin-2-one] came in with an Emax at 1 µM of 21%.

As for `O=C1CCc2cnc(OCCCCN3CCN(c4cccc5c4OCCC5)CC3)cc2N1` [Example H1′, 7-[4-(4-Chroman-8-yl-piperazin-1-yl)-butoxy]-3,4-dihydro-1H-[1,6]naphthyridin-2-one], the maximal effect (Emax) at 1 µM was 22%.

In turn, `O=c1ccc2ccc(OCCCCN3CCN(c4cccc5c4CCO5)CC3)nc2[nH]1` [Example B11′, 7-{4-[4-(2,3-Dihydro-benzofuran-4-yl)-piperazin-1-yl]-butoxy}-1H-[1,8]naphthyridin-2-one] showed an Emax at 1 µM of 21%.

In turn, `O=C1NCc2ccc(OCCCCN3CCN(c4cccc5c4OCC5)CC3)nc2N1` [Example E3′, 7-{4-[4-(2,3-Dihydro-benzofuran-7-yl)-piperazin-1-yl]-butoxy}-3,4-dihydro-1H-pyrido[2,3-d]pyrimidin-2-one] came in with a maximal effect (Emax) at 1 µM of 8%.

`O=C1CCc2cnc(OCCCCN3CCN(c4cccc5c4OC(F)(F)O5)CC3)cc2N1` [Example H4′, 7-{4-[4-(2,2-Difluoro-benzo[1,3]dioxol-4-yl)-piperazin-1-yl]-butoxy}-3,4-dihydro-1H-[1,6]naphthyridin-2-one] yielded an Emax at 1 µM of 21%.

In turn, `O=C1CCc2ccc(OCCCCN3CCN(c4cccc5ncc(F)cc45)CC3)nc2N1` [Example A38′, 7-{4-[4-(3-Fluoro-quinolin-5-yl)-piperazin-1-yl]-butoxy}-3,4-dihydro-1H-[1,8]naphthyridin-2-one] came in with an Emax at 1 µM of 20%.
